# Reference: PubChem BioAssay (NCI)
#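 Cells were grown in 96-well plates and exposed to each compound for 48 hours at five concentrations; endpoints were interpolated linearly between bracketing concentrations, or set to the highest concentration if not reached. Here, GI50 denotes the concentration required for 50% inhibition of growth. The concentration for full growth arrest is given as TGI.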
# Legend:
# Assay in all cases: growth of human tumour cells (NCI), 48 h
# A549 NSCLC = system: A549 NSCLC
# HOP-92 NSCLC = system: HOP-92 NSCLC
# LOX IMVI melanoma = system: LOX IMVI melanoma
# M14 melanoma = system: M14 melanoma
# MALME-3M melanoma = system: MALME-3M melanoma
# MDA-MB-231 breast = system: MDA-MB-231 breast
# SF-539 CNS = system: SF-539 CNS
# SW-620 colon = system: SW-620 colon
# U251 CNS = system: U251 CNS
# UACC-62 melanoma = system: UACC-62 melanoma
Structure (SMILES),GI50 (A549 NSCLC) [µM],TGI (A549 NSCLC) [µM],GI50 (HOP-92 NSCLC) [µM],TGI (HOP-92 NSCLC) [µM],GI50 (LOX IMVI melanoma) [µM],TGI (LOX IMVI melanoma) [µM],GI50 (M14 melanoma) [µM],TGI (M14 melanoma) [µM],GI50 (MALME-3M melanoma) [µM],TGI (MALME-3M melanoma) [µM],GI50 (MDA-MB-231 breast) [µM],TGI (MDA-MB-231 breast) [µM],GI50 (SF-539 CNS) [µM],TGI (SF-539 CNS) [µM],GI50 (SW-620 colon) [µM],TGI (SW-620 colon) [µM],GI50 (U251 CNS) [µM],TGI (U251 CNS) [µM],GI50 (UACC-62 melanoma) [µM],TGI (UACC-62 melanoma) [µM]
N/C(=N\N=C\c1ccc(-c2ccccc2)cc1)N[N+](=O)[O-],2.75,> 100,2.18,> 100,5.75,> 100,1.65,> 100,> 100,> 100,> 68,> 100,2.12,> 100,0.796,> 100,3.05,> 100,0.771,> 100
COc1ccc(N=c2ssc3c(=S)ssc23)cc1,,> 100,,70.3,,34.1,,48.6,,> 100,,,,96.2,,35.8,,96.7,,61.8
Nc1ncnc2[nH]ncc12,1.72,> 66.8,0.431,3.61,0.34,> 41,0.442,12.4,,,0.577,> 100,4.17,> 100,0.646,> 100,4.83,> 100,0.512,3.48
CCN1CCC(CCOC)(CN2c3ccccc3Sc3ccc(Cl)cc32)C1 (configuration not stated),1.9,3.56,,,,,1.92,3.62,1.91,3.6,1.86,3.67,1.76,3.51,1.7,3.24,1.89,3.64,2.05,3.81
COc1cc(C(=O)C/C(CCC(=O)Nc2ccccc2[N+](=O)[O-])=N\NC(=O)CC#N)ccc1O,,> 100,,,,> 100,,> 100,,> 100,,,,> 100,,> 100,,,,> 100
CCCCCCc1cc(C(=O)Nc2cccc(C(F)(F)F)c2)nc(N)n1,,> 100,,> 100,,> 100,,> 100,,> 100,,,,> 100,,> 100,,> 100,,> 100
CCOC(=O)c1oc2ccc(OC)c3c2c1CCC3,,> 100,,> 100,,> 100,,> 100,,> 100,,,,> 100,,> 100,,> 100,,> 100
CC(=O)OC1CCn2nnc(CO[Si](C)(C)C(C)(C)C)c21 (configuration not stated),,> 100,,,,,,> 100,,> 100,,,,> 100,,> 100,,> 100,,
O=C(O)C/C=C/CC(=O)O,,> 100,,,,> 100,,> 100,,> 100,,> 100,,,,> 100,,> 100,,> 100
